{
  "source": "ChEMBL document CHEMBL1201862",
  "about": "“PubChem BioAssay data set” (2004)",
  "assay_type_in_all_cases": "functional",
  "key": {"[1]": {"target": "Multidrug resistance protein CDR2 (Candida albicans (strain SC5314 / ATCC MYA-2876) (Yeast), UniProt P78595)", "assay": "inhibition of Nile Red efflux via Candida CDR2 – S. cerevisiae AD1-8u, singleplex, Cherry Pick1 hits, dose response (AID 588604)"}, "[2]": {"target": "Death-associated protein kinase 3 (Homo sapiens, UniProt O43293)", "sequence (O43293 whole entry)": "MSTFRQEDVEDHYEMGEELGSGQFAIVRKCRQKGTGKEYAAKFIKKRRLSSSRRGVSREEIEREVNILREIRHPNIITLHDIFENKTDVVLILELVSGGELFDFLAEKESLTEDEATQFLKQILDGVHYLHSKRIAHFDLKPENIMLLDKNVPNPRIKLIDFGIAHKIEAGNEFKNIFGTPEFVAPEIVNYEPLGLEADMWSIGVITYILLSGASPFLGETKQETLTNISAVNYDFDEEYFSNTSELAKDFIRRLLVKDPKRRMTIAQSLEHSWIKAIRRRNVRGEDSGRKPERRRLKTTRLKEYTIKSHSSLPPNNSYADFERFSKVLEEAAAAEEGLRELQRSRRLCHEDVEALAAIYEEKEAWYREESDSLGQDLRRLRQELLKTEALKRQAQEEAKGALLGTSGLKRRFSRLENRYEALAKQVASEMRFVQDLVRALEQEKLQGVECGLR"}, "[3]": {"target": "Mitogen-activated protein kinase 14 (Homo sapiens, UniProt Q16539)"}, "[4]": {"target": "G protein-coupled receptor kinase 5 (Homo sapiens, UniProt P34947)", "assay": "Navigating the Kinome. Panel member name: GPRK5"}, "[5]": {"target": "Fibroblast growth factor receptor 1 (Homo sapiens, UniProt P11362)"}, "[6]": {"target": "Mitogen-activated protein kinase kinase kinase kinase 4 (Homo sapiens, UniProt O95819)"}, "[7]": {"target": "Serine/threonine-protein kinase TAO1 (Homo sapiens, UniProt Q7L7X3)"}, "[8]": {"target": "Tyrosine-protein kinase Fyn (Homo sapiens, UniProt P06241)"}, "[9]": {"target": "Serine/threonine-protein kinase pim-1 (Homo sapiens, UniProt P11309)", "sequence (P11309 whole entry)": "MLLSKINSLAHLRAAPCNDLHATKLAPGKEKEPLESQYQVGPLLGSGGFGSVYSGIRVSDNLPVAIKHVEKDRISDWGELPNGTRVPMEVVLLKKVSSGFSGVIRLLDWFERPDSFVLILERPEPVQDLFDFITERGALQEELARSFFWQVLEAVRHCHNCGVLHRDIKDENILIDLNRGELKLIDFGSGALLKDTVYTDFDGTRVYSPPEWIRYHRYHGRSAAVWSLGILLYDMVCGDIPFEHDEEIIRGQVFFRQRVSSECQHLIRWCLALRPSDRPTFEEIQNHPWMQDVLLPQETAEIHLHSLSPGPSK"}, "[10]": {"target": "Cyclin-dependent kinase 7 (Homo sapiens, UniProt P50613)", "sequence (P50613 whole entry)": "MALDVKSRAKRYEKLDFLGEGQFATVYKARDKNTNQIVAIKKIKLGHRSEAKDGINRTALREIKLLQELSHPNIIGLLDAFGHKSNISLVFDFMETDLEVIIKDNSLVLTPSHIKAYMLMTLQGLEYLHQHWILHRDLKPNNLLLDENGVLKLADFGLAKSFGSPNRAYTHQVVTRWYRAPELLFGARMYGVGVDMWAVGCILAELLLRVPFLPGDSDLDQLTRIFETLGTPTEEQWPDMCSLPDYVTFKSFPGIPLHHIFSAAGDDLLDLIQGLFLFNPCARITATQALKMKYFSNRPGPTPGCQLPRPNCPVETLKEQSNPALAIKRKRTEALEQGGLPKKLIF"}, "[11]": {"target": "Glycogen synthase kinase-3 alpha (Homo sapiens, UniProt P49840)"}, "[12]": {"target": "Dual specificity protein kinase CLK4 (Homo sapiens, UniProt Q9HAZ1)", "sequence (Q9HAZ1 whole entry)": "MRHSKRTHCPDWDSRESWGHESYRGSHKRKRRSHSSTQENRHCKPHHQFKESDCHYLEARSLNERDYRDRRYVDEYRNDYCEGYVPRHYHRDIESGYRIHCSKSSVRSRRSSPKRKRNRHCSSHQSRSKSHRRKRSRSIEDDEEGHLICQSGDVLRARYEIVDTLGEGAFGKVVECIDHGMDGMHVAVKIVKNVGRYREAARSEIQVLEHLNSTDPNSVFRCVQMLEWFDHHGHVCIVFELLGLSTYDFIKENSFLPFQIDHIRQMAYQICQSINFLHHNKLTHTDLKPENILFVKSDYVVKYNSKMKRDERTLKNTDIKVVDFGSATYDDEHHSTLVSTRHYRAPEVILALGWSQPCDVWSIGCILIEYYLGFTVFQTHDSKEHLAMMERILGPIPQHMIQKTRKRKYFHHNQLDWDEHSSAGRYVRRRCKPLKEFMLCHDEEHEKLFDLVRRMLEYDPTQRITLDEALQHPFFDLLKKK"}, "[13]": {"target": "Serine/threonine-protein kinase Chk1 (Homo sapiens, UniProt O14757)"}, "[14]": {"target": "Serine/threonine-protein kinase PAK 4 (Homo sapiens, UniProt O96013)", "sequence (O96013 whole entry)": "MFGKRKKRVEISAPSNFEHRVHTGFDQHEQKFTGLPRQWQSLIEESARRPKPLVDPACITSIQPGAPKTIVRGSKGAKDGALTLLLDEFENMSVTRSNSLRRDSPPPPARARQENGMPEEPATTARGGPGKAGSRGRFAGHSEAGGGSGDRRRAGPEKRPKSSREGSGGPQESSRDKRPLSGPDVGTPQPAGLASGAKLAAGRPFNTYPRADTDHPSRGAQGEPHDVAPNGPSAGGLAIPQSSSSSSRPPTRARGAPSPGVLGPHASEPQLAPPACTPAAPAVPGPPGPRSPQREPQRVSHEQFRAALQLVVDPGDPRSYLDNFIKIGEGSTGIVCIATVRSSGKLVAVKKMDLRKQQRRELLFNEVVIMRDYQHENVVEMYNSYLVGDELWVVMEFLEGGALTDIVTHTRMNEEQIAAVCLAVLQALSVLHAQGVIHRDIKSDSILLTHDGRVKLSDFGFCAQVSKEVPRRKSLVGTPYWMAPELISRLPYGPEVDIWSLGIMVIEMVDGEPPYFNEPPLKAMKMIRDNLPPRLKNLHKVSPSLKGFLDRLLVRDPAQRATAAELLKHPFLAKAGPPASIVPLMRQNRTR"}, "[15]": {"target": "Tyrosine-protein kinase BTK (Homo sapiens, UniProt Q06187)"}, "LIM domain kinase 1": {"target": "LIM domain kinase 1 (Homo sapiens, UniProt P53667)", "assay": "Navigating the Kinome. Panel member name: LIMK1"}, "[16]": {"target": "Cyclin-dependent kinase 8 (Homo sapiens, UniProt P49336)", "sequence (P49336 whole entry)": "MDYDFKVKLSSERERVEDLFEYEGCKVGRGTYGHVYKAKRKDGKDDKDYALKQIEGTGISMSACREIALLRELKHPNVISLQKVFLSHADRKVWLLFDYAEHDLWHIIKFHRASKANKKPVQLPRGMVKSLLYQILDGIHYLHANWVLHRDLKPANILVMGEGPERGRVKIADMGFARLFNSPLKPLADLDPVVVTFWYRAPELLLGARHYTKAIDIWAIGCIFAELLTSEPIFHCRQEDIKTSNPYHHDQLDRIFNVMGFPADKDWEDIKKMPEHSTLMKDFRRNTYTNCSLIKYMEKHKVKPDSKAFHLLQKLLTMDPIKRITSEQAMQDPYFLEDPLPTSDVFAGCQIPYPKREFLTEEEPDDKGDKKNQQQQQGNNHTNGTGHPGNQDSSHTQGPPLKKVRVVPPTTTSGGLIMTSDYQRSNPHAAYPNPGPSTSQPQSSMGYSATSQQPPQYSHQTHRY", "assay": "Navigating the Kinome. Panel member name: CDK8"}, "Activin receptor type-1": {"target": "Activin receptor type-1 (Homo sapiens, UniProt Q04771)", "assay": "Navigating the Kinome. Panel member name: ACVR1"}, "[17]": {"target": "Leukocyte tyrosine kinase receptor (Homo sapiens, UniProt P29376)", "assay": "Navigating the Kinome. Panel member name: LTK"}, "[18]": {"target": "Serine/threonine-protein kinase D3 (Homo sapiens, UniProt O94806)", "sequence (O94806 whole entry)": "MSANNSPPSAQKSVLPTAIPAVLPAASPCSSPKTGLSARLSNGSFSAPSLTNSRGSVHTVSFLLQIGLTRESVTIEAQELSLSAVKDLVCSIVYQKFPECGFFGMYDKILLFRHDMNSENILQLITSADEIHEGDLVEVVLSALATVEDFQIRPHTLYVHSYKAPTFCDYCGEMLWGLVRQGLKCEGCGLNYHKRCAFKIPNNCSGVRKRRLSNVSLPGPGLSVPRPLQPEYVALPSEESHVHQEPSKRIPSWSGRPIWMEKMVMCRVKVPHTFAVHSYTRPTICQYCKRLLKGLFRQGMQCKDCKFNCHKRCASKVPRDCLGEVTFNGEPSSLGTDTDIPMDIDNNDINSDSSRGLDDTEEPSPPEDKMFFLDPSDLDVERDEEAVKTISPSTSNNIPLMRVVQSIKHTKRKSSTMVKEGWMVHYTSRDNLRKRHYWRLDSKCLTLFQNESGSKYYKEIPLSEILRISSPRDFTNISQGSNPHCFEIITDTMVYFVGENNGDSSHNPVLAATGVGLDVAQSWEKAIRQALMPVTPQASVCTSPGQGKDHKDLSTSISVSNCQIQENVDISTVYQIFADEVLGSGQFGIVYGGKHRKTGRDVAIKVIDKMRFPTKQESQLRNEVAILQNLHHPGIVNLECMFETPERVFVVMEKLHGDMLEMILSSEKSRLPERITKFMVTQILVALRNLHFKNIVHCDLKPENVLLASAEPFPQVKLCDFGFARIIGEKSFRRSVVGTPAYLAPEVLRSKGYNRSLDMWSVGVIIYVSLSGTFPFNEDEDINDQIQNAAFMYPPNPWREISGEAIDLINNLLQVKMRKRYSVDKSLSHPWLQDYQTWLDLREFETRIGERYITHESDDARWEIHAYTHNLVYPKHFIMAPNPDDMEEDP"}, "Aurora kinase B": {"target": "Aurora kinase B (Homo sapiens, UniProt Q96GD4)"}, "[19]": {"target": "Casein kinase I isoform alpha (Homo sapiens, UniProt P48729)", "sequence (P48729 whole entry, canonical isoform)": "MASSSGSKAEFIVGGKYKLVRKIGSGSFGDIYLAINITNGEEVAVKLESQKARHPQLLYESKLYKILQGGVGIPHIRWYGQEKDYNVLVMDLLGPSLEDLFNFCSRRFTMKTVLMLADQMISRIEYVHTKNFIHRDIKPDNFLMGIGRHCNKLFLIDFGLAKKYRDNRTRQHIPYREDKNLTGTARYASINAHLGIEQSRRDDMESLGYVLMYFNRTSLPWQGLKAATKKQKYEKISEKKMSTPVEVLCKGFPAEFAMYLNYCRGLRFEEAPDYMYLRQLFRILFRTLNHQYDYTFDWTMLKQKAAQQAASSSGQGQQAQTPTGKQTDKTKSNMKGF"}, "[20]": {"target": "Calcium/calmodulin-dependent protein kinase type II subunit alpha (Homo sapiens, UniProt Q9UQM7)", "assay": "Navigating the Kinome. Panel member name: CAMK2A"}, "[21]": {"target": "Tyrosine-protein kinase JAK3 (Homo sapiens, UniProt P52333)", "sequence (P52333 whole entry)": "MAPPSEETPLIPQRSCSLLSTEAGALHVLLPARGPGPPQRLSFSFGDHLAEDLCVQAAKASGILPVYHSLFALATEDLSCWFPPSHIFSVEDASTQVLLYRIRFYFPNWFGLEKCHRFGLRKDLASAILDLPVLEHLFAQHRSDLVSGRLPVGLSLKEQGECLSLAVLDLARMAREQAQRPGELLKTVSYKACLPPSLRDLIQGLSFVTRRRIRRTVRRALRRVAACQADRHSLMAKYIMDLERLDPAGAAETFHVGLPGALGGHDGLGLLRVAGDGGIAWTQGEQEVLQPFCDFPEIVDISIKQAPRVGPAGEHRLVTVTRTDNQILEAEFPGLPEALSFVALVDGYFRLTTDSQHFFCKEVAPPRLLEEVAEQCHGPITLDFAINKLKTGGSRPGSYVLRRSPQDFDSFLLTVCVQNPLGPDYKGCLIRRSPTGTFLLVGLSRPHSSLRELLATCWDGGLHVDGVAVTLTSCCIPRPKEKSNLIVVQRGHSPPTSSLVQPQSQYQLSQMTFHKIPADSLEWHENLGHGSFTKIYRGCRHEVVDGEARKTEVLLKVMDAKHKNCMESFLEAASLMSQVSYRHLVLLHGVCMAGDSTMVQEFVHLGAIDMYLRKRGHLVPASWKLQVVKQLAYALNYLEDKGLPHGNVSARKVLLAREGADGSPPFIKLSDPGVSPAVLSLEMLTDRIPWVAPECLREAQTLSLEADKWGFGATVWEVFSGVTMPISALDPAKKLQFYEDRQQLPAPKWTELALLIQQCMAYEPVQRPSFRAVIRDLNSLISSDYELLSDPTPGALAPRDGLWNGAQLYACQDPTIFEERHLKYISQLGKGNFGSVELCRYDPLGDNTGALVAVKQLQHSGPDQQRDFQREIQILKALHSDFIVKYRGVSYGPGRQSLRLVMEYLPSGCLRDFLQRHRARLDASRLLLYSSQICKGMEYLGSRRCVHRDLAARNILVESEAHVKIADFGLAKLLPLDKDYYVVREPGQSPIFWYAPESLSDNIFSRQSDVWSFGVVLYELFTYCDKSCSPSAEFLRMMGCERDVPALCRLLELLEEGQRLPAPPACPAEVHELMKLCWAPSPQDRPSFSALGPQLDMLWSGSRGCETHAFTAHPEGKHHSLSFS"}, "[22]": {"target": "ALK tyrosine kinase receptor (Homo sapiens, UniProt Q9UM73)"}, "[23]": {"target": "Tyrosine-protein kinase Lck (Homo sapiens, UniProt P06239)"}, "[24]": {"target": "Mitogen-activated protein kinase 8 (Homo sapiens, UniProt P45983)"}, "Focal adhesion kinase 1": {"target": "Focal adhesion kinase 1 (Homo sapiens, UniProt Q05397)"}, "[25]": {"target": "Maternal embryonic leucine zipper kinase (Homo sapiens, UniProt Q14680)"}, "[26]": {"target": "Receptor-type tyrosine-protein kinase FLT3 (Homo sapiens, UniProt P36888)"}, "[27]": {"target": "cAMP-dependent protein kinase catalytic subunit PRKX (Homo sapiens, UniProt P51817)"}, "[28]": {"target": "Cyclin-dependent kinase 9 (Homo sapiens, UniProt P50750)"}, "[29]": {"target": "Serine/threonine-protein kinase N2 (Homo sapiens, UniProt Q16513)"}, "[30]": {"target": "Glycogen synthase kinase-3 beta (Homo sapiens, UniProt P49841)"}, "[31]": {"target": "Dual specificity protein kinase CLK2 (Homo sapiens, UniProt P49760)"}, "[32]": {"target": "Serine/threonine-protein kinase 17A (Homo sapiens, UniProt Q9UEE5)"}, "[33]": {"target": "Mitogen-activated protein kinase kinase kinase kinase 5 (Homo sapiens, UniProt Q9Y4K4)"}, "[34]": {"target": "Tyrosine-protein kinase SYK (Homo sapiens, UniProt P43405)"}, "[35]": {"target": "Homeodomain-interacting protein kinase 2 (Homo sapiens, UniProt Q9H2X6)"}, "[36]": {"target": "Serine/threonine-protein kinase 3 (Homo sapiens, UniProt Q13188)"}, "[37]": {"target": "cAMP-dependent protein kinase catalytic subunit alpha (Homo sapiens, UniProt P17612)"}, "Misshapen-like kinase 1": {"target": "Misshapen-like kinase 1 (Homo sapiens, UniProt Q8N4C8)"}, "[38]": {"target": "Calcium/calmodulin-dependent protein kinase type II subunit delta (Homo sapiens, UniProt Q13557)"}, "[39]": {"target": "Neuropeptides B/W receptor type 1 (Homo sapiens, UniProt P48145)", "assay": "human NPBW1 receptor blockade, IC50 – cell-based, fluorescence, dose response, set 5, late-stage follow-up (AID 588566)"}, "[40]": {"target": "Melanin-concentrating hormone receptor 1 (Homo sapiens, UniProt Q99705)", "assay": "Late-stage fluorescence-based counterscreen for antagonists of the G-protein coupled receptor 7 (GPR7): cell-based dose response assay to identify antagonists of the melanin-concentrating hormone receptor 1 (MCHR1) Set 5."}},
  "note": "Activity calls are given as the source filed them.",
  "data": [
    {"smiles": "CCCCSC1=N/C(=C/c2ccsc2)C(=O)N1c1ccccc1", "values": [
      {"measurement": "EC50", "setting": "[1]", "value": "10.3 µM (active)"}
    ]},
    {"smiles": "CCN(CC)CCNc1ccc(O)c2ccccc12", "values": [
      {"measurement": "Ki", "setting": "[2]", "value": "> 5.01 µM (inactive)"},
      {"measurement": "Ki", "setting": "[3]", "value": "> 3.98 µM (inactive)"},
      {"measurement": "Ki", "setting": "[4]", "value": "> 3.98 µM (inactive)"},
      {"measurement": "Ki", "setting": "[5]", "value": "> 3.98 µM (inactive)"},
      {"measurement": "Ki", "setting": "[6]", "value": "> 5.01 µM (inactive)"},
      {"measurement": "Ki", "setting": "[7]", "value": "> 6.31 µM (inactive)"},
      {"measurement": "Ki", "setting": "[8]", "value": "> 6.31 µM (inactive)"},
      {"measurement": "Ki", "setting": "[9]", "value": "2.51 µM (active)"},
      {"measurement": "Ki", "setting": "[10]", "value": "> 3.98 µM (inactive)"},
      {"measurement": "Ki", "setting": "[11]", "value": "> 3.98 µM (inactive)"},
      {"measurement": "Ki", "setting": "[12]", "value": "2 µM (active)"},
      {"measurement": "Ki", "setting": "[13]", "value": "0.398 µM (active)"},
      {"measurement": "Ki", "setting": "[14]", "value": "> 5.01 µM (inactive)"},
      {"measurement": "Ki", "setting": "[15]", "value": "> 6.31 µM (inactive)"},
      {"measurement": "Ki", "setting": "LIM domain kinase 1", "value": "0.794 µM (active)"},
      {"measurement": "Ki", "setting": "[16]", "value": "> 3.98 µM (inactive)"},
      {"measurement": "Ki", "setting": "Activin receptor type-1", "value": "> 3.98 µM (inactive)"},
      {"measurement": "Ki", "setting": "[17]", "value": "2 µM (active)"},
      {"measurement": "Ki", "setting": "[18]", "value": "> 3.98 µM (inactive)"},
      {"measurement": "Ki", "setting": "Aurora kinase B", "value": "> 3.98 µM (inactive)"},
      {"measurement": "Ki", "setting": "[19]", "value": "> 3.98 µM (inactive)"},
      {"measurement": "Ki", "setting": "[20]", "value": "> 3.98 µM (inactive)"},
      {"measurement": "Ki", "setting": "[21]", "value": "> 5.01 µM (inactive)"},
      {"measurement": "Ki", "setting": "[22]", "value": "> 6.31 µM (inactive)"},
      {"measurement": "Ki", "setting": "[23]", "value": "> 6.31 µM (inactive)"},
      {"measurement": "Ki", "setting": "[24]", "value": "> 5.01 µM (inactive)"},
      {"measurement": "Ki", "setting": "Focal adhesion kinase 1", "value": "> 6.31 µM (inactive)"}
    ]},
    {"smiles": "O=C(O)c1ccccc1Nc1ncnc(Nc2ccc3cn[nH]c3c2)n1", "values": [
      {"measurement": "Ki", "setting": "[2]", "value": "0.2 µM (active)"},
      {"measurement": "Ki", "setting": "[6]", "value": "2 µM (active)"},
      {"measurement": "Ki", "setting": "[9]", "value": "1 µM (active)"},
      {"measurement": "Ki", "setting": "[25]", "value": "0.158 µM (active)"},
      {"measurement": "Ki", "setting": "[26]", "value": "0.0631 µM (active)"},
      {"measurement": "Ki", "setting": "[27]", "value": "1 µM (active)"},
      {"measurement": "Ki", "setting": "[10]", "value": "1.58 µM (active)"},
      {"measurement": "Ki", "setting": "[28]", "value": "0.2 µM (active)"},
      {"measurement": "Ki", "setting": "[29]", "value": "2 µM (active)"},
      {"measurement": "Ki", "setting": "[12]", "value": "0.126 µM (active)"},
      {"measurement": "Ki", "setting": "[30]", "value": "0.0158 µM (active)"},
      {"measurement": "Ki", "setting": "[31]", "value": "3.16 µM (active)"},
      {"measurement": "Ki", "setting": "[14]", "value": "1 µM (active)"},
      {"measurement": "Ki", "setting": "[32]", "value": "0.02 µM (active)"},
      {"measurement": "Ki", "setting": "[33]", "value": "2.51 µM (active)"},
      {"measurement": "Ki", "setting": "[16]", "value": "> 3.98 µM (inactive)"},
      {"measurement": "Ki", "setting": "[34]", "value": "0.501 µM (active)"},
      {"measurement": "Ki", "setting": "[18]", "value": "0.398 µM (active)"},
      {"measurement": "Ki", "setting": "[35]", "value": "0.158 µM (active)"},
      {"measurement": "Ki", "setting": "[36]", "value": "0.501 µM (active)"},
      {"measurement": "Ki", "setting": "[19]", "value": "2 µM (active)"},
      {"measurement": "Ki", "setting": "[21]", "value": "1 µM (active)"},
      {"measurement": "Ki", "setting": "[37]", "value": "3.98 µM (active)"},
      {"measurement": "Ki", "setting": "Misshapen-like kinase 1", "value": "> 2.51 µM (inactive)"},
      {"measurement": "Ki", "setting": "[38]", "value": "> 3.16 µM (inactive)"}
    ]},
    {"smiles": "O=c1c(Cl)c(Oc2ccc3c(c2)CCO3)cnn1Cc1cccc2ccccc12", "values": [
      {"measurement": "IC50", "setting": "[39]", "value": "3.22 µM (active)"},
      {"measurement": "IC50", "setting": "[40]", "value": "10.4 µM (inactive)"}
    ]}
  ]
}
